Structures can show the parent of a compound that is named as a salt.
Columns and labels:
[1] = target: T1, hERG potassium ion channel (Homo sapiens, UniProt Q12809); experiment: Inhibition test on hERG potassium ion channel (automated patch clamp, CHO-hERG cells); format: cell-based; conditions: Qpatch, highest test concentration 40.00 μM
T1 construct: expressed in transfected cells; host or cells: CHO (CHO-hERG cell line)
Protocol: Experimental Example 4: Inhibition Test of Compounds on hERG Potassium Ion Channel
Experimental purpose: To detect the effect of the compounds to be tested on the hERG potassium channel by an automated patch clamp method.
1.1 CHO-hERG cells were cultured in a 175 cm^2 culture flask. When the cell density reached 60 to 80%, the culture medium was removed, and the cells were washed once with 7 mL of PBS (phosphate buffered saline), and then digested with 3 mL of digestion solution.
1.2 After the digestion was completed, 7 mL of culture medium was added to neutralize, then the mixture was centrifuged, and the supernatant was aspirated, and then 5 mL of culture medium was added to re-suspend, ensuring 2 to 5×10^6/mL of cell density.
The process of single cell high impedance sealing and whole cell mode formation were all automatically completed by Qpatch instrument, after obtaining the whole cell recording mode, the cells were clamped at −80 mV, before giving a 5-second +40 mV depolarization stimulus, a 50 millisecond −50 mV prevoltage was given first, and then repolarized to −50 mV for 5 seconds, then returned to −80 mV This voltage stimulation was applied every 15 seconds and after recording for 2 minutes, extracellular fluid was recordings for 5 minutes, and then the administration process was started. The compound concentration was given from the lowest test concentration, each test concentration was given for 2.5 minutes, and 3 μM of Cisapride as the positive control compound was given after all concentrations were continuously given. At least 3 cells (n≥3) were tested at each concentration.
4.1 The mother solution of the compound was diluted with DMSO, and 10 μL of mother solution of the compound was added to 20 μL of DMSO solution, and was 3-fold diluted continuously to 6 DMSO concentrations.
4.2 4 μL of compounds with 6 DMSO concentrations were added to 396 μL of extracellular fluid, 100-fold diluted to 6 intermediate concentrations, and then 80 μL of the compounds with 6 intermediate concentrations were added to 320 μL of extracellular fluid, 5-fold diluted to the final concentration to be tested.
4.3 The highest test concentration was 40.00 μM, in a total of 6 concentrations of 40.00, 13.33, 4.44, 1.48, 0.49, and 0.16 μM respectively.
4.4 The content of DMSO in the final test concentration was not more than 0.2%, and this concentration of DMSO had no effect on hERG potassium channel.
4.5 The whole dilution process of compound preparation was completed by Bravo instrument.
The experimental data were analyzed by GraphPad Prism 5.0 software.

NLRP3 = target: T2, NLRP3 (Homo sapiens, UniProt Q96P20); experiment: Detecting IC50 of NLRP3 inhibitor by using THP-1 cells (IL-1β secretion, CBA); format: cell-based; conditions: PMA/LPS/ATP, IL-1β in supernatant
T2 construct: This experiment utilized the human-derived monocyte cell line THP1; endogenous in cells; host or cells: THP-1 (human monocyte line, PMA-differentiated into macrophages)
T2 sequence (Q96P20 whole entry): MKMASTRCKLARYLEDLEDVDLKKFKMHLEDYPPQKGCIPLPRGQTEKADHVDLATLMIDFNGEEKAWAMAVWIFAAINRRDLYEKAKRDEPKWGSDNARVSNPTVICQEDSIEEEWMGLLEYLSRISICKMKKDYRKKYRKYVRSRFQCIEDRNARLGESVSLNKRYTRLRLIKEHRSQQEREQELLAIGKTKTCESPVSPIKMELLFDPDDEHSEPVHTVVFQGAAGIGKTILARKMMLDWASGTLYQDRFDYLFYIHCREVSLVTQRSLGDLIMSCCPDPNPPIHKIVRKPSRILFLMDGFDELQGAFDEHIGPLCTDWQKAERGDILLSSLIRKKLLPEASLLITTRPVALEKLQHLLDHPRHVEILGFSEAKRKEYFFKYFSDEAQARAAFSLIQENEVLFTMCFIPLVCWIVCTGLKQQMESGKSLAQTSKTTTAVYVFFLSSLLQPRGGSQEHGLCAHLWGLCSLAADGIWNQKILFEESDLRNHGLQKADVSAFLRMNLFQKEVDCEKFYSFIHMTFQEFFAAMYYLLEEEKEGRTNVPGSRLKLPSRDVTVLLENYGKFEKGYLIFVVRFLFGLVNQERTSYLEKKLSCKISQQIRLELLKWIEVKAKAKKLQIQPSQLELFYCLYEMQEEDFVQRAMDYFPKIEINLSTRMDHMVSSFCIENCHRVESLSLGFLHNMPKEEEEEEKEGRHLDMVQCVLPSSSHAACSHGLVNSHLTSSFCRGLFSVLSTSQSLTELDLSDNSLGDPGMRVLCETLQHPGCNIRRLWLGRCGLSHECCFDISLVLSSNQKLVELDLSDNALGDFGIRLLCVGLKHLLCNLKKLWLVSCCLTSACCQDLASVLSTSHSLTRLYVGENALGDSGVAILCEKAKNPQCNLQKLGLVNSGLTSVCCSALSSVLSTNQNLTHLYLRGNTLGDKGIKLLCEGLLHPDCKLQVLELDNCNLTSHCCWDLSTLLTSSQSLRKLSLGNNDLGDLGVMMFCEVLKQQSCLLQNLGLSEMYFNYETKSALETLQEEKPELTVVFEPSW
From the text: 1. Experimental principle: This experiment utilized the human-derived monocyte cell line THP1 to investigate the inhibitory activity (IC50) of NLRP3 inhibitor on cellular IL-1β secretion. PMA (12-O-tetradecanoylphorbol-13-acetate) was used to differentiate the monocyte cell line THP1 into mature macrophages, which were then stimulated using LPS (lipopolysaccharide), an agonist of the Toll-like receptor TLR4, to activate the transcriptional activity of the inflammasome NLRP3 and the expression of pro-IL-1β, a precursor of IL-1β. At this time, the inhibitor of NLRP3 was added, and then ATP (adenosine triphosphate) was added to further mature and activate NLRP3, and activate downstream caspase-1. Activated caspase-1 may enzymatically process pro-IL-1β into mature IL-1β that can be secreted.
(1) The density of THP1 cells was adjusted to 5×10^5 cells/mL, then PMA was added, and the final concentration was adjusted to 100 ng/mL. The cells were inoculated 200 μL/well into a 96-well flat-bottom plate, stimulated overnight (<16 hours if possible) at 37° C. and 5% CO2.
(2) The supernatant was discarded the next day, and then the cells were carefully washed twice with Dulbecco's phosphate-buffered saline (200 μL/time).
(3) The cells were stimulated with LPS at a final concentration of 100 ng/mL, added to a 96-well plate (200 μL/well), and cultured at 37° C. and 5% CO2 for 3 hours.
The cells were incubated for 1 hour in a 37° C., 5% CO2 incubator.
(5) ATP was added to each well with a final concentration of 5 mM, and cultured overnight (>18 hours) at 37° C. and 5% CO2.
(6) On the third day, 5 μL of the supernatant was taken, diluted 10-fold, and the content of IL-1β in the supernatant was detected by cytometric bead array (CBA).

[2] = In vivo pharmacokinetic evaluation in CD-1 mice; conditions: male, mouse, plasma; for half-life: IV, read-out: Half-life T1/2 (IV) (converted); for clearance: read-out: Clearance rate CL; for Vd: read-out: Tissue distribution Vdss; for AUC(0-t): PO, read-out: Area under drug-time curve AUC0-last PO; for bioavailability: read-out: Bioavailability F; for Cmax: read-out: Peak concentration Cmax
Protocol: Experimental Example 2: In Vivo Pharmacokinetic Evaluation of Compounds in CD-1 Mice
Experimental purpose: To test the in vivo pharmacokinetics of the compounds in CD-1 mice
CD-1 mice (male, 7 to 9 weeks old)
The rodent pharmacokinetic characteristics after intravenous injection and oral administration of the compounds were tested using a standard protocol. The candidate compound was prepared as a clear solution during the experiment and given to mice for single intravenous injection and oral administration. The vehicle for intravenous injection and oral administration was a mixed vehicle composed of 5% dimethyl sulfoxide and 95% 5% solutol. Four male CD-1 mice were used in this project. Two mice were administered intravenously (IV), and plasma samples were collected at 0 hours (before administration) and 0.0833, 0.25, 0.5, 1, 2, 4, 8, and 24 hours after administration. The other two mice were administered orally by gavage (PO), and plasma samples were collected at 0 hours (before administration) and 0.25, 0.5, 1, 2, 4, 8, and 24 hours after administration. The plasma concentration was quantitatively analyzed by LC-MS/MS analysis method, and the pharmacokinetic parameters were calculated, such as peak concentration (Cmax), clearance rate (CL), half-life (T1/2), […] (Vdss), area under drug-time curve (AUC0-last), bioavailability (F).

[3] = In vivo pharmacokinetic evaluation in SD rats; conditions: male, rat, plasma, dose IV/PO 1/2 mg/kg; for half-life / clearance / Vd: 1 mg/kg; for half-life: IV, read-out: Half-life T1/2 (IV) (converted); for clearance: read-out: Clearance rate CL; for Vd: read-out: Tissue distribution Vdss; for AUC(0-t): PO, read-out: Area under drug-time curve AUC0-last PO; for bioavailability: read-out: Bioavailability F; for Cmax: read-out: Peak concentration Cmax
Protocol: Experimental Example 3: In Vivo Pharmacokinetic Evaluation of Compounds in SD Rats
Experimental Purpose: To Test the In Vivo Pharmacokinetics of the Compounds in SD Rats
The rodent pharmacokinetic characteristics after intravenous injection and oral administration of the compounds were tested using a standard protocol. The candidate compound was prepared as a clear solution during the experiment and given to SD rats for single intravenous injection and oral administration. The vehicle for intravenous injection and oral administration was a mixed vehicle composed of 5% dimethyl sulfoxide and 95% 5% solutol. Four male SD rats were used in this project. Two SD rats were administered intravenously, and plasma samples were collected at 0.083, 0.25, 0.5, 1, 2, 4, 8, and 24 hours after administration. The other two SD rats were administered orally by gavage, and plasma samples were collected at 0.25, 0.5, 1, 2, 4, 8, and 24 hours after administration. The plasma concentration was quantitatively analyzed by LC-MS/MS analysis method, and the pharmacokinetic parameters were calculated, such as peak concentration (Cmaz), clearance rate (CL), half-life (T1/2), […] (Vdss), area under drug-time curve (AUC0-last), bioavailability (F).

T1 sequence (Q12809 whole entry): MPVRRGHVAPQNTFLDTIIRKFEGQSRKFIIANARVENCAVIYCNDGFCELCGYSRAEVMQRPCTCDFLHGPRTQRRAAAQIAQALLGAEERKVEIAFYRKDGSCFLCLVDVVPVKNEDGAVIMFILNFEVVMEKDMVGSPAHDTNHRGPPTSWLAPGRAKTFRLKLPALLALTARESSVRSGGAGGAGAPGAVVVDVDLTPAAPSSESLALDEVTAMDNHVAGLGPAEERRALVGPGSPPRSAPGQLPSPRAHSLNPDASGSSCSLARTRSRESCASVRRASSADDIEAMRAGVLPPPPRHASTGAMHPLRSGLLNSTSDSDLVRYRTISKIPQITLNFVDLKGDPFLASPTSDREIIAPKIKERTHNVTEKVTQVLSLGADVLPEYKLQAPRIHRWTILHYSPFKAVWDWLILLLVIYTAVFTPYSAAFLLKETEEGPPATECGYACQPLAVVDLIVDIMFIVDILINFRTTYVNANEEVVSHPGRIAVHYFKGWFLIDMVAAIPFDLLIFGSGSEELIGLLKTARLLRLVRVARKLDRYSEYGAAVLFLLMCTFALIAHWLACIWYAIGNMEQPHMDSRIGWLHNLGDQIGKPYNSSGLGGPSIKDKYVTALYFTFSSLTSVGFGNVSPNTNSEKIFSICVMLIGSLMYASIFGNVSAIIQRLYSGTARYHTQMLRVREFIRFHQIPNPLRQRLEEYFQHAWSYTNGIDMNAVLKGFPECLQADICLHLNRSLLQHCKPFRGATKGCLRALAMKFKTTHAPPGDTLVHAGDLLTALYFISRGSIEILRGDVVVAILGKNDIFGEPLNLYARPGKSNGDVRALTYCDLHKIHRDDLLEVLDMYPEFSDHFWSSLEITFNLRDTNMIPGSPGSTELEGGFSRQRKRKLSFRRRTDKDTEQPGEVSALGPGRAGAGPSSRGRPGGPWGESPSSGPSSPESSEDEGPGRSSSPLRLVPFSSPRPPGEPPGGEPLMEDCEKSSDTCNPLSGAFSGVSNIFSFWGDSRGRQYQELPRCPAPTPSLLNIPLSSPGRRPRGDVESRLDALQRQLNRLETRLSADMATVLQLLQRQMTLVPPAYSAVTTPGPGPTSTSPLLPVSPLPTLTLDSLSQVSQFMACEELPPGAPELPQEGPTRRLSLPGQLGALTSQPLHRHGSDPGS

Work on `Cc1cc(NC2CN(C)CC(F)(F)C2)nnc1-c1ccc2sccc2c1O` (single isomer, unassigned) [Compound 70a] yielded an IC50 [1] of 34200 nM and an IC50 (NLRP3) of 23.4 nM.
`Cc1cc(NC2CN(C)CC(F)(F)C2)nnc1-c1ccc2sccc2c1O` (single isomer, unassigned) [Compound 70b] showed an IC50 [1] of over 40000 nM and an IC50 (NLRP3) of 3.33 nM.
`Cc1cc(N[C@@H]2CCCN(CC#N)C2)nnc1-c1ccc2c(c1O)CCC2` [Compound 12a] gave an IC50 [1] of 31500 nM and an IC50 (NLRP3) of 0.97 nM.
Compound `Cc1cc(N[C@@H]2CCCN(C3COC3)C2)nnc1-c1ccc2c(c1O)CCC2` [Compound 13] has an IC50 [1] of 21100 nM and an IC50 (NLRP3) of 1.55 nM.
For `Cc1cc(N[C@@H]2CCCN(C3COC3)C2)nnc1-c1ccc(-c2ccc(F)cc2)cc1O` [Compound 21], the IC50 [1] was 10600 nM and the IC50 (NLRP3) was 62.7 nM.
`Cc1cc(N[C@@H]2CCCN(C3COC3)C2)nnc1-c1ccc(C2CC2)cc1O` [Compound 22] showed a half-life ([2]; 1 mg/kg, dose IV/PO 1/2 mg/kg) of 1.13 h, a clearance ([2]; 1 mg/kg, dose IV/PO 1/2 mg/kg) of 9.56 mL/min/kg and a Vd ([2]; 1 mg/kg, dose IV/PO 1/2 mg/kg) of 0.718 L/kg. The AUC(0-t) ([2]; dose IV/PO 1/2 mg/kg) was 5.33 µM·h, the bioavailability ([2]; dose IV/PO 1/2 mg/kg) was 62.4% and the Cmax ([2]; dose IV/PO 1/2 mg/kg) was 3.22 µM. It also gave an IC50 [1] of over 40000 nM and an IC50 (NLRP3) of 9.2 nM.
`Cc1cc(N[C@@H]2CCCN(CC#N)C2)nnc1-c1ccc(C2CC2)cc1O` [Compound 23] showed a half-life ([2]; 1 mg/kg, dose IV/PO 1/2 mg/kg) of 1.24 h, a clearance ([2]; 1 mg/kg, dose IV/PO 1/2 mg/kg) of 6.49 mL/min/kg and a Vd ([2]; 1 mg/kg, dose IV/PO 1/2 mg/kg) of 0.618 L/kg. The AUC(0-t) ([2]; dose IV/PO 1/2 mg/kg) was 10.4 µM·h, the bioavailability ([2]; dose IV/PO 1/2 mg/kg) was 79.9% and the Cmax ([2]; dose IV/PO 1/2 mg/kg) was 3.84 µM. It also gave an IC50 [1] of over 40000 nM and an IC50 (NLRP3) of 4.7 nM.
In the case of `Cc1cc(N[C@@H]2CCCN(CC(F)(F)F)C2)nnc1-c1ccc2sccc2c1O` [Compound 48], the IC50 at 2.5 min ([1]; human, CHO cells that express hERG (CHO-hERG)) is reported as at least 42600 nM and the IC50 (NLRP3) is reported as 2.87 nM.
Work on `Cc1cc(N[C@@H]2CCCN(CC#N)C2)nnc1-c1ccc2sccc2c1O` [Compound 53] yielded an IC50 [1] of 17100 nM, an IC50 (NLRP3) of 0.74 nM and a half-life [3] of 1.12 h. The clearance [3] was 10.3 mL/min/kg, the Vd [3] was 0.796 L/kg and the AUC(0-t) [3] was 4.69 µM·h. For the same compound, the bioavailability [3] was 49.8% and the Cmax [3] was 1.52 µM.
`Cc1cc(N[C@H]2CN3CCC2CC3)nnc1-c1ccc2c(c1O)CCC2` [Hydrochloride of compound 7] showed an IC50 [1] of 37500 nM and an IC50 (NLRP3) of 5.72 nM.
Work on `Cc1cc(N[C@@H]2CCCN(C)C2)nnc1-c1ccc2sccc2c1O` [Hydrochloride of compound 20] yielded a half-life ([2]; 2 mg/kg, dose IV/PO 2/10 mg/kg) of 3.26 h, a clearance ([2]; 2 mg/kg, dose IV/PO 2/10 mg/kg) of 28.7 mL/min/kg and a Vd ([2]; 2 mg/kg, dose IV/PO 2/10 mg/kg) of 7.03 L/kg. It also gave an AUC(0-t) ([2]; dose IV/PO 2/10 mg/kg) of 16 µM·h, a bioavailability ([2]; dose IV/PO 2/10 mg/kg) of 96.5% and a Cmax ([2]; dose IV/PO 2/10 mg/kg) of 4.29 µM. It also gave an IC50 [1] of 10300 nM, an IC50 (NLRP3) of 0.08 nM and a half-life [3] of 1.81 h. It also gave a clearance [3] of 48.5 mL/min/kg, a Vd [3] of 6.79 L/kg and an AUC(0-t) [3] of 0.926 µM·h. It also gave a bioavailability [3] of 49.7% and a Cmax [3] of 0.204 µM.
With `Cc1cc(NC[C@@H](C)O)nnc1-c1ccc2sccc2c1O` [Hydrochloride of compound 57] the IC50 [1] was over 40000 nM and the IC50 (NLRP3) was 3.37 nM.
`Cc1cc(N[C@H]2COC[C@@H]2O)nnc1-c1ccc2sccc2c1O` [Hydrochloride of compound 59] gave an IC50 [1] of over 40000 nM and an IC50 (NLRP3) of 1.73 nM.
In the case of `Cc1cc(N[C@@H]2CCCC[C@H]2O)nnc1-c1ccc2sccc2c1O` [Hydrochloride of compound 60], the half-life ([2]; 2 mg/kg, dose IV/PO 2/10 mg/kg) is reported as 1.45 h, the clearance ([2]; 2 mg/kg, dose IV/PO 2/10 mg/kg) is reported as 12.8 mL/min/kg and the Vd ([2]; 2 mg/kg, dose IV/PO 2/10 mg/kg) is reported as 1.08 L/kg. For the same compound, the AUC(0-t) ([2]; dose IV/PO 2/10 mg/kg) was 48.1 µM·h, the bioavailability ([2]; dose IV/PO 2/10 mg/kg) was 147% and the Cmax ([2]; dose IV/PO 2/10 mg/kg) was 22.2 µM. For the same compound, the IC50 [1] was over 40000 nM, the IC50 (NLRP3) was 0.436 nM and the half-life [3] was 1.08 h. The clearance [3] was 10 mL/min/kg, the Vd [3] was 0.402 L/kg and the AUC(0-t) [3] was 6.66 µM·h. For the same compound, the bioavailability [3] was 71.1% and the Cmax [3] was 2.61 µM.
